The values that follow are results of earlier work, collected in US20230071557A1, “STABLE PHARMACEUTICAL COMPOSITIONS OF ROPINIROLE” (ORION CORPORATION, priority 2020, published 2023).

For this data set, the system named is dogs. The settings on record: aqueous eye drop solution comprising 10 or 40 mg/ml of ropinirole hydrochloride.

Structures are written as SMILES. Structures can show the parent of a compound that is named as a salt.

As to `CCCN(CCC)CCc1cccc2c1CC(=O)N2` [ropinirole hydrochloride], the “Vomiting (emesis) in dogs” value was “produced vomiting rapidly and consistently”.
